Data from patent US8716287B2, “Pharmaceutical compounds” (Sentinel Oncology Limited, priority 2010, dated 2014).
Structures can show the parent of a compound that is named as a salt. Where two headings read alike, the source gives them in different places.

Key:
Chk-1 kinase = Chk-1 kinase (Homo sapiens (Human), UniProt O14757); assay: Chk-1 kinase inhibiting activity (33P-ATP filter assay, CHKtide substrate); format: biochemical
Description: The compounds of the invention were tested for activity against Chk-1 kinase using the materials and protocols set out below.
Base Reaction buffer: 20 mM Hepes (pH 7.5), 10 mM MgCl2, 1 mM EGTA, 0.02% Brij35, 0.02 mg/ml BSA, 0.1 mM Na3VO4, 2 mM DTT, 1% DMSO
*Required cofactors are added individually to each kinase reaction
(i) Prepare indicated substrate in freshly prepared Base Reaction Buffer
(ii) Deliver any required cofactors to the substrate solution above
(iii) Deliver indicated kinase into the substrate solution and gently mix
(iv) Deliver compounds in DMSO into the kinase reaction mixture
(v) Deliver ^33P-ATP (specific activity 0.01 μCi/μl final) into the reaction mixture to initiate the reaction.
(vi) Incubate kinase reaction for 120 minutes at room temperature
(vii) Reactions are spotted onto P81 ion exchange paper (Whatman #3698-915)
(viii) Wash filters extensively in 0.1% phosphoric acid.
(ix) Dry filters and measure counts in scintillation counter
Recombinant full length construct, N-terminal GST tagged, purified from insect cells.
No special measures were taken to activate this kinase.
Final concentration in assay=0.5 nM
Peptide sequence: [[…]]
Final concentration in assay=20 μM
No additional cofactors are added to the reaction mixture

HT29 cells = assay: Sensitisation of HT29 cells to SN38 (Alamar blue cell growth); format: cell-based, human; settings: for Cell potentiation factor: SN38 sensitisation assay in HT-29 cells, compound at 3 μM; for fold shift in the IC50 value of SN38: HT29 cells, test compound at 3 μM
Description: Studies were carried out to test the sensitising effect of compounds of the invention on the ability of the DNA damaging compound 7-ethyl-10-hydroxycamptothecin (SN38), an active metabolite of the anti-cancer drug irinotecan, to inhibit cell growth in HT29 cells.
The following protocol was used:
(a) HT29 cells were seeded in 96-well plates at a concentration of 3000 cells per well and allowed to adhere overnight prior to addition of compound or vehicle control.
(b) SN38 was prepared from a 10 mM DMSO stock to give a final concentration range of 1 μM, 300 nM, 100 nM, 30 nM, 10 nM, 3 nM, 1 nM, and vehicle control.
(c) Test compounds were prepared from 10 mM DMSO stocks to typically give a final concentration range of 3 μM, 1 μM, 0.3 μM. 0.1 μM, 0.03 μM and vehicle control. The final DMSO content was 0.4%.
(d) Test compounds were incubated with the cells for 72 h at 37° C. 5% CO2 in a humidified atmosphere.
(e) Alamar blue 10% (v/v) was then added and incubated for a further 6 h, and fluorescent product detected using the BMG FLUOstar plate reader.
(f) Data were analysed using a 4-parameter logistic equation in GraphPad Prism.
Sensitisation is determined by the enhancement in IC50 of SN38 by the addition of the Chk-1 kinase inhibitor. In the protocol described above, the IC50 for SN-38 is determined the presence of varying doses of the Chk-1 inhibitor. The fold shift represents a decrease in IC50 for SN-38 at a dose of Chk-1 inhibitor that has no effect by itself.

[1] = comparative tests, Example 70, read-out: Chk-1 IC50
[2] = Chk-1 kinase, Table 3, read-out: IC50
[3] = ranges given, read-out: IC50 values against Chk-1 kinase

Sequence of Chk-1 kinase (O14757 whole entry): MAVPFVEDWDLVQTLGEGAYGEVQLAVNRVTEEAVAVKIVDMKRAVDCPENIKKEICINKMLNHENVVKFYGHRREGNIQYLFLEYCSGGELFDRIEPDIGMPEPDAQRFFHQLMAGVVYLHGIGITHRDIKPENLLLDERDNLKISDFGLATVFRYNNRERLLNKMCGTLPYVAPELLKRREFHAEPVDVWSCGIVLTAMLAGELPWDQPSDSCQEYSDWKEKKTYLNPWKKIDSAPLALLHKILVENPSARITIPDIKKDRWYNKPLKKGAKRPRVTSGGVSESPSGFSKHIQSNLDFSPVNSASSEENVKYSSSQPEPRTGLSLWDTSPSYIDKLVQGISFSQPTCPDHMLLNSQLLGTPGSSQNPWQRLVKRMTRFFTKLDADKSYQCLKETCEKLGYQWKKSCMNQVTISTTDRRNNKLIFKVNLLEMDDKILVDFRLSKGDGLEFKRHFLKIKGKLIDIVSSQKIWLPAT

Row | Compound | IC50 (Chk-1 kinase; [2]) [nM] | IC50 (Chk-1 kinase; [3]) [nM] | other results
1 | COc1cc(CNCc2ccccc2)ccc1NC(=O)Nc1cnc(C)cn1 [Compound 338, reference compound] |  |  | IC50 (Chk-1 kinase; [1]): 99 nM; Cell potentiation factor (HT29 cells): 5 fold
2 | N#Cc1cnc(NC(=O)Nc2ccc(CCNCc3ccccc3)cc2)cn1 [Example 1, 1-[4-(2-Benzylamino-ethyl)-phenyl]-3-(5-cyano-pyrazin-2-yl)-urea] | 200 | 100 to 1000 | IC50 (Chk-1 kinase; [1]): 99 nM; fold improvement in potency against Chk-1 enzyme (Chk-1 kinase; relative to Example 30 (alkylene chain 1 to 2 carbon atoms)): ~3 fold; fold shift in the IC50 value of SN38 (HT29 cells): three; Cell potentiation factor (HT29 cells): 4 fold
3 | N#Cc1cnc(NC(=O)Nc2ccc(CCNCc3ccc(F)cc3)cc2)cn1 [Example 2, 1-(5-Cyano-pyrazin-2-yl)-3-{4-[2-(4-fluoro-benzylamino)-ethyl]-phenyl}-urea] | 44 | 10 to 100 | fold shift in the IC50 value of SN38 (HT29 cells): three
4 | N#Cc1cnc(NC(=O)Nc2ccc(CCNCc3ccc(F)cc3F)cc2)cn1 [Example 3, 1-(5-Cyano-pyrazin-2-yl)-3-{4-[2-(2,4-difluoro-benzylamino)-ethyl]-phenyl}-urea] | 179 | 100 to 1000 | fold shift in the IC50 value of SN38 (HT29 cells): three
5 | N#Cc1cnc(NC(=O)Nc2ccc(CCNCc3ccc(F)cc3F)c(Cl)c2)cn1 [Example 5, 1-{3-Chloro-4-[2-(2,4-difluoro-benzylamino)-ethyl]-phenyl}-3-(5-cyano-pyrazin-2-yl)-urea] | 38 | 10 to 100 | fold shift in the IC50 value of SN38 (HT29 cells): three
6 | N#Cc1cnc(NC(=O)Nc2ccc(OCCNCc3ccc(F)cc3F)c(Cl)c2)cn1 [Example 6, 1-{3-Chloro-4-[2-(2,4-difluoro-benzylamino)-ethoxy]-phenyl}-3-(5-cyano-pyrazin-2-yl)-urea] | 26 | 10 to 100 | fold shift in the IC50 value of SN38 (HT29 cells): three
7 | C[C@@H](NCCc1ccc(NC(=O)Nc2cnc(C#N)cn2)cc1Cl)c1ccc(F)cc1 [Example 24, 1-(3-Chloro-4-{2-[(R)-1-(4-fluoro-phenyl)-ethylamino]-ethyl}-phenyl)-3-(5-cyano-pyrazin-2-yl)-urea hydrochloride] | 13 | 10 to 100 | 
8 | N#Cc1cnc(NC(=O)Nc2ccc(CCNCCc3ccc(F)cc3F)c(Cl)c2)cn1 [Example 28, 1-(3-Chloro-4-{2-[2-(2,4-difluoro-phenyl)-ethylamino]-ethyl}-phenyl)-3-(5-cyano-pyrazin-2-yl)-urea] | 47 | 10 to 100 | 
9 | COc1cc(CCNCc2ccc(F)cc2F)ccc1NC(=O)Nc1cnc(C#N)cn1 [Example 30, 1-(5-Cyano-pyrazin-2-yl)-3-{4-[2-(2,4-difluoro-benzylamino)-ethyl]-2-methoxy-phenyl}-urea] | 6.4 | < 10 | 
10 | COc1cc(CCNCc2ccccc2)ccc1NC(=O)Nc1cnc(C)cn1 [Example 32, 1-[4-(2-Benzylamino-ethyl)-2-methoxy-phenyl]-3-(5-methyl-pyrazin-2-yl)-urea hydrochloride] | 27 |  | IC50 (Chk-1 kinase; [1]): 27 nM; fold improvement in potency against Chk-1 (Chk-1 kinase; relative to Compound 338 of WO02/070494 (alkylene chain 1 to 2 carbon atoms)): ~3 fold
11 | Cc1cc(NC(=O)Nc2cnc(C#N)cn2)ccc1CCNCc1ccc(F)cc1 [Example 36, 1-(5-Cyano-pyrazin-2-yl)-3-{4-[2-(4-fluoro-benzylamino)-ethyl]-3-methyl-phenyl}-urea hydrochloride] | 10 |  | 
12 | COc1cc(CCN[C@H](C)c2ccc(F)cc2)ccc1NC(=O)Nc1cnc(C#N)cn1 [Example 43, 1-(5-Cyano-pyrazin-2-yl)-3-(4-{2-[(R)-1-(4-fluoro-phenyl)-ethylamino]-ethyl}-2-methoxy-phenyl)-urea] | 3.3 | < 10 | 
13 | CCOc1cc(CCNCc2ccc(F)cc2)c(Cl)cc1NC(=O)Nc1cnc(C#N)cn1 [Example 45, 1-{5-Chloro-2-ethoxy-4-[2-(4-fluoro-benzylamino)-ethyl]-phenyl}-3-(5-cyano-pyrazin-2-yl)-urea hydrochloride] | 1.2 | < 10 | 
14 | CC(C)Oc1cc(CCNCc2ccc(F)cc2)c(Cl)cc1NC(=O)Nc1cnc(C#N)cn1 [Example 46, 1-{5-Chloro-4-[2-(4-fluoro-benzylamino)-ethyl]-2-isopropoxy-phenyl}-3-(5-cyano-pyrazin-2-yl)-urea hydrochloride] | 0.32 | < 10 | 
15 | COc1cc(OCCNCc2ccc(F)cc2)c(Cl)cc1NC(=O)Nc1cnc(C#N)cn1 [Example 47, 1-{5-Chloro-4-[2-(4-fluoro-benzylamino)-ethoxy]-2-methoxy-phenyl}-3-(5-cyano-pyrazin-2-yl)-urea hydrochloride] | 8.4 | < 10 | 
16 | COc1cc(CCN[C@@H](C)c2ccc(N3CCNCC3)cc2)c(Cl)cc1NC(=O)Nc1cnc(C#N)cn1 [Example 52, 1-(5-Chloro-2-methoxy-4-{2-[(S)-1-(4-piperazin-1-yl-phenyl)-ethylamino]-ethyl}-phenyl)-3-(5-cyano-pyrazin-2-yl)-urea hydrochloride] | 0.13 | < 10 | 
17 | COc1cc(CNCc2ccccc2)c(Cl)cc1NC(=O)Nc1cnc(C#N)cn1 [Example 56, 1-[4-(Benzylamino-methyl)-5-chloro-2-methoxy-phenyl]-3-(5-cyano-pyrazin-2-yl)-urea hydrochloride] | 2.8 | < 10 | 
18 | COc1cc(CNCc2cccc(F)c2)ccc1NC(=O)Nc1cnc(C#N)cn1 [Example 58, 1-(5-Cyano-pyrazin-2-yl)-3-{4-[(3-fluoro-benzylamino)-methyl]-2-methoxy-phenyl}-urea hydrochloride] | 21 |  | 
19 | COc1cc(CNCc2ccccc2F)ccc1NC(=O)Nc1cnc(C#N)cn1 [Example 59, 1-(5-Cyano-pyrazin-2-yl)-3-{4-[(2-fluoro-benzylamino)-methyl]-2-methoxy-phenyl}-urea hydrochloride] | 13 |  | 
20 | COc1cccc(CNCc2ccc(NC(=O)Nc3cnc(C#N)cn3)c(OC)c2)c1 [Example 61, 1-(5-Cyano-pyrazin-2-yl)-3-{2-methoxy-4-[(3-methoxy-benzylamino)-methyl]-phenyl}-urea hydrochloride] | 7.5 | < 10 | 
21 | COc1ccccc1CNCc1ccc(NC(=O)Nc2cnc(C#N)cn2)c(OC)c1 [Example 62, 1-(5-Cyano-pyrazin-2-yl)-3-{2-methoxy-4-[(2-methoxy-benzylamino)-methyl]-phenyl}-urea] | 7.8 | < 10 | 
22 | COc1cc(CNCc2ccc(F)cc2)c(Cl)cc1NC(=O)Nc1cnc(C#N)cn1 [Example 63, 1-{5-Chloro-4-[(4-fluoro-benzylamino)-methyl]-2-methoxy-phenyl}-3-(5-cyano-pyrazin-2-yl)-urea hydrochloride] | 9.8 | < 10 | 
23 | COc1cc(CCNCc2ccc(N3CCNCC3)cc2)c(Cl)cc1NC(=O)Nc1cnc(C#N)cn1 [Example 64, 1-{5-Chloro-2-methoxy-4-[2-(4-piperazin-1-yl-benzylamino)-ethyl]-phenyl}-3-(5-cyano-pyrazin-2-yl)-urea hydrochloride] | 0.03 | < 10 | 
24 | COc1cccc([C@H](C)NCCc2cc(OC)c(NC(=O)Nc3cnc(C#N)cn3)cc2Cl)c1 [Example 65, 1-(5-Chloro-2-methoxy-4-{2-[(S)-1-(3-methoxy-phenyl)-ethylamino]-ethyl}-phenyl)-3-(5-cyano-pyrazin-2-yl)-urea hydrochloride] | 0.73 | < 10 | 
